# Results as given in patent US6995138B2, “Cross-linked glycopeptide-cephalosporin antibiotics” (priority 2002, dated 2006).
# Key:
# [1] = tested on: MRSA 33591; assay: Time-kill assay, MRSA; assay type: cell-based, Staphylococcus aureus; settings: bactericidal in 24 hours
# Procedure: (§3) Time-Kill Assay This time-kill assay is a method for measuring the rate of bactericidal activity of a test compound.
# (§4) Bacteria were diluted in prewarmed media in shake flasks and incubated with shaking (200 rpm, 35° C.). At 0, 1, 4, and 24 hours samples were withdrawn from the flasks and bacteria were enumerated by plate counting. Subsequent to the initial sampling, a compound to be assayed was added to the shake flask culture. Plate counts at these intervals previous to and following addition of the compound were expressed graphically in a time-kill curve.
# [2] = tested on: MRSA 33591; assay: In vivo efficacy in neutropenic mice (thigh infection); settings: Staphylococcus aureus; neutropenic male CD-1 mice, MRSA 33591 thigh infection, iv, 24 hours post-treatment; read-out: ED50 (dose required to produce 50% of the maximum reduction in thigh titre)
# Procedure: In vivo Efficacy Studies in Neutropenic Mice Animals (male CD-1 mice, 20-30 g) were acquired from Charles Rivers Laboratories (Gilroy, Calif.) and allowed access to food and water ad libitum. Neutropenia was induced via 200 mg/kg intraperitoneal (IP) injection of cyclophosphamide given four and two days prior to the inoculation of bacteria.
# The organism used was either a susceptible or resistant strain of clinically relevant gram positive pathogens, such as methicillin-susceptible Staphylococcus aureus (MSSA 13709) and methicillin-resistant Staphylococcus aureus (MRSA 33591). The bacterial inoculum concentration was ˜10^6 CFU/mL. Animals were lightly anesthetized with isoflurane and […] of the bacterial inoculum was injected into the anterior thigh. One hour after the inoculation, animals were dosed intravenously with vehicle or the appropriate dose of the test compound. At 0 hours and 24 hours post-treatment, the animals were euthanized (CO2 asphyxiation) and the anterior and posterior thigh collected aseptically. The thigh was placed into 10 mL sterile saline and homogenized. Dilutions of the homogenate were plated onto triptic soy agar plates which were incubated overnight. The number of bacterial colonies on a given plate was multiplied by the dilution factor, divided by the thigh weight (in grams) and expressed as log CFU/g. […]
# [3] = tested on: MSSA 13709; assay: Time-kill assay, MSSA; assay type: cell-based, Staphylococcus aureus; settings: bactericidal in 24 hours
# Procedure: as §3, §4
# [4] = tested on: Methicillin-resistant S. aureus (MRSA 33591); assay: Minimal inhibitory concentration (MIC), broth microdilution, MRSA; assay type: cell-based; settings: Staphylococcus aureus, read-out: MIC (minimum inhibitory concentration)
# Procedure: (§1) Minimal inhibitory concentration (MICs) assays were performed using the broth microdilution method set forth in NCCLS guidelines (see, NCCLS. 2000. Methods for Dilution Antimicrobial Susceptibility Tests for Bacteria That Grow Aerobically; Approved Standard—Fifth Ed., Vol. 20, No. 2). Bacterial strains were obtained from the American Type Tissue Culture Collection (ATCC), Stanford University Hospital (SU), Kaiser Permanente Regional Laboratory in Berkeley (KPB), Massachusetts General Hospital (MGH), the Centers for Disease Control (CDC), the San Francisco Veterans' Administration Hospital (SFVA) or the University of California San Francisco Hospital (UCSF). Vancomycinresistant enterococci were phenotyped as Van A or Van B based on their sensitivity to teicoplanin. Some vancomycin-resistant enterococci that had been genotyped as Van A, Van B, Van C1 or Van C2 were also obtained from the Mayo Clinic.
# (§2) In this assay, cryopreserved bacterial cultures of reference and clinical strains were streaked for isolation on appropriate agar medium (i.e., Trypticase Soy Agar, Trypticase Soy Agar with defibrinated sheep erthrocytes, Brain Heart Infusion Agar, Chocolate Agar). Following incubation to allow formation of colonies, these plates were sealed with parafilm and stored refrigerated for up to two weeks. […] The MIC was read visually as the lowest concentration well with no bacterial growth. […]
# [5] = tested on: Methicillin-sensitive S. aureus (MSSA 13709); assay: Minimal inhibitory concentration (MIC), broth microdilution, MSSA; assay type: cell-based; settings: Staphylococcus aureus, read-out: MIC (minimum inhibitory concentration)
# Procedure: as §1, §2
smiles,measurement,setting,value
"CN[C@H](CC(C)C)C(=O)N[C@H]1C(=O)N[C@@H](CC(N)=O)C(=O)N[C@H]2C(=O)N[C@H]3C(=O)N[C@H](C(=O)N[C@H](C(=O)O)c4cc(O)cc(O)c4-c4cc3ccc4O)[C@H](O)c3ccc(c(Cl)c3)Oc3cc2cc(c3O[C@@H]2O[C@H](CO)[C@@H](O)[C@H](O)[C@H]2O[C@H]2C[C@](C)(N)[C@H](O)[C@H](C)O2)Oc2ccc(cc2Cl)[C@H]1O [Vancomycin, vancomycin]",concentration at which bactericidal (≧3 log decrease in bacterial cell numbers),[1],4 μg/mL
same,ED50,[2],9 mg/kg
same,concentration at which bactericidal (≧3 log decrease in bacterial cell numbers),[3],4 μg/mL
same,MIC,[4],2 µg/mL
same,MIC,[5],1 µg/mL
